Laboratory results taken from patent US5034510A, “Antibacterial substance” (Shin-Etsu Chemical Co., Ltd., priority 1986, dated 1991).
Where no end group is shown, it is not given here.

Assays:
Experiment in all cases: MIC by broth dilution method
Type in all cases: cell-based
[1] = test system: Bacillus subtilis PCI 219; conditions: B. sub 219
Protocol: (§1) Using the substances finally obtained in the above-described Experiments 35 to 42 and having no blocking group, MIC (minimum growth inhibitory concentration) against various bacteria was examined according to the broth dilution method, and the antibacterial activities were evaluated.
(§2) H--(1-23)--NH(CH2)7 CH3 was synthesized according to the same procedures as described in Experiments 1 to 35, and the antibacterial activities thereof against various bacteria were examined in the same manner as in Example 1.

[2] = test system: E. coli JC-2
Protocol: as §1, §2

[3] = test system: Enterobacter aerogenes IFO 13545; conditions: E. aero 13534
Protocol: as §1, §2

[4] = test system: Escherichia coli D 21
Protocol: as §1, §2

[5] = test system: Escherichia coli NIHJ; conditions: E. coli NIHJ
Protocol: as §1, §2

[6] = test system: Micrococcus luteus ML II; conditions: M. lute ML II
Protocol: as §1, §2

[7] = test system: Proteus mirabilis 1287; conditions: P. mira 1287
Protocol: as §1, §2

[8] = test system: Proteus mirabilis 129; conditions: P. mira 129
Protocol: as §1, §2

[9] = test system: Pseudomonas aeruginosa 99; conditions: P. aeru 99
Protocol: as §1, §2

[10] = test system: Pseudomonas aeruginosa; conditions: P. aeru
Protocol: as §1, §2

[11] = test system: Pseudomonas aeruguinosa OT 97; conditions: P. aeru OT 97
Protocol: as §1, §2

[12] = test system: Salmonella enteritidis IFO 3313; conditions: S. ent 3313
Protocol: as §1, §2

[13] = test system: Staphylococcus aureus FDA 209P; conditions: S. aure 209-P
Protocol: as §1, §2

[14] = test system: Streptococcus hemolyticus; conditions: S. hemo
Protocol: as §1, §2

**Q.** How did the MIC ([1]; Table 1) turn out when “RWKIFKKIEKMGRNIRDGIVKAGPAIEVLGSAKAI-NH2 [Synthetic lepidopteran A, lepidopteran A, reference compound]” was run?
**A.** Its MIC is 32 mg/L.

**Q.** What about the MIC ([1]; Table 2) of the same substance?
**A.** The MIC was 32 mg/L.

**Q.** And the MIC ([2]; Table 1)?
**A.** Its MIC is 4 mg/L.

**Q.** What about the MIC ([2]; Table 2) of the same substance?
**A.** The MIC was 4 mg/L.

**Q.** What about the MIC ([3]; Table 1) of the same substance?
**A.** Its MIC is 8 mg/L.

**Q.** And the MIC ([3]; Table 2)?
**A.** Its MIC is 8 mg/L.

**Q.** What about the MIC ([4]; E. coli D 21, Table 1) of the same substance?
**A.** Its MIC is 2 mg/L.

**Q.** What about the MIC ([4]; E. coli D, Table 2) of the same substance?
**A.** Its MIC is 2 mg/L.

**Q.** And the MIC ([5]; Table 1)?
**A.** Its MIC is 4 mg/L.

**Q.** And the MIC ([5]; Table 2)?
**A.** The MIC was 4 mg/L.

**Q.** And the MIC ([6]; Table 1)?
**A.** The MIC was 2 mg/L.

**Q.** What about the MIC ([6]; Table 2) of the same substance?
**A.** The MIC was 2 mg/L.

**Q.** What about the MIC ([7]; Table 1) of the same substance?
**A.** Its MIC is 32 mg/L.

**Q.** What about the MIC ([7]; Table 2) of the same substance?
**A.** The MIC was 32 mg/L.

**Q.** What about the MIC ([8]; Table 1) of the same substance?
**A.** The MIC was 32 mg/L.

**Q.** And the MIC ([8]; Table 2)?
**A.** The MIC was 32 mg/L.

**Q.** What about the MIC ([9]; Table 1) of the same substance?
**A.** The MIC was 8 mg/L.

**Q.** And the MIC ([9]; Table 2)?
**A.** The MIC was 8 mg/L.

**Q.** And the MIC ([10]; Table 1)?
**A.** The MIC was 8 mg/L.

**Q.** And the MIC ([10]; Table 2)?
**A.** The MIC was 8 mg/L.

**Q.** And the MIC ([11]; Table 1)?
**A.** The MIC was 8 mg/L.

**Q.** And the MIC ([11]; Table 2)?
**A.** Its MIC is 8 mg/L.

**Q.** And the MIC ([12]; Table 1)?
**A.** Its MIC is 4 mg/L.

**Q.** What about the MIC ([12]; Table 2) of the same substance?
**A.** The MIC was 4 mg/L.

**Q.** And the MIC ([13]; Table 1)?
**A.** The MIC was 8 mg/L.

**Q.** And the MIC ([13]; Table 2)?
**A.** The MIC was 125 mg/L.

**Q.** What about the MIC ([14]; Table 1) of the same substance?
**A.** Its MIC is “-- (Symbol "--" is meant to be MIC > 250 mcg/ml)”.

**Q.** What about the MIC ([14]; Table 2) of the same substance?
**A.** The MIC was “-- (Symbol "--" is meant to be MIC > 250 mcg/ml)”.
